Laboratory results: US9040565B2, “1H-benzimidazole-5-carboxamides as anti-inflammatory agents” (Orexo AB, priority 2008, dated 2015)

Biological target: T1, recombinant human mPGES-1 (Homo sapiens, UniProt O14684)
T1 construct: made in house; host or cells: Rosetta E. coli (microsomal/membrane fraction)
T1 sequence (O14684 1-152): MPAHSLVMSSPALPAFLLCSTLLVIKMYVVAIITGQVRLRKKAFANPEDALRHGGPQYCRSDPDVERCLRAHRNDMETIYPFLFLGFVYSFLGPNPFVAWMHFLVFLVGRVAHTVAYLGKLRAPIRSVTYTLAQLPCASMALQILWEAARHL
Experiment: mPGES-1 inhibition, HTRF detection of PGE2 (Biological Test)
Format: biochemical
Experimental: Microsomes from Rosetta E. coli bacteria expressing recombinant human mPGES-1 is dissolved in 0.1 M KPi pH 7.4 buffer containing 2.5 mM GSH. 50 μl of the enzyme is subsequently dispensed in a 384-well plate. 0.5 μl of the inhibitor dissolved in DMSO at is thereafter added to each well and incubated for 25 minutes at room temperature.
Subsequently, 2 μl of PGH2 dissolved in an appropriate solvent is added to each well and after one minute the acidified stop solution containing FeCl2 is added. 4 μl of the total volume is transferred to a separate plate and diluted 750-fold in two separate steps before HTRF detection of PGE2.
The HTRf detection is performed by the use of a commercially available kit from CisBio essentially according to the manufacturer's protocol. Briefly, 10 μl of the diluted sample is transferred to a white 384-well plate. 5 μl of d2 and 5 μl Eu3+-Cryptate labeled anti-PGE2 is added to each well containing samples by the use of a Multidrop. The plate is covered with a plastic self-adhesive film, centrifuged at 1200 rpm for 1 minute and subsequently stored at +4° C. over night.
After over night incubation the fluorescence is measured by the use of an appropriate microplate reader. The fluorescence of europium cryptate, and d2 are measured using the following excitation and emission wavelength, europium cryptate: λmax^ex=307 nm, λmax^em=620 nm and d2: λmax^ex=620 nm, λmax^em=665 nm), respectively. The extent of the specific FRET is measured as a ratio of the emission intensity at 665 nm vs. that at 620 nm. A standard curve using synthetic PGE2 is used to quantify the amount of PGE2 in unknown samples.

Row | SMILES | inhibition at 10 µM [%]
1 | O=C(Nc1ccc(Br)cc1)c1ccc2nc(Nc3c(Cl)cncc3Cl)[nH]c2c1 [Example 388, N-(4-Bromophenyl)-2-(3,5-dichloropyridin-4-ylamino)-1H-benzimidazole-5-carboxamide] | 100
2 | CC1(C)CCC(NC(=O)c2ccc3nc(Nc4c(Cl)cncc4Cl)[nH]c3c2)CC1 [Example 409, 2-(3,5-Dichloropyridin-4-ylamino)-N-(4,4-dimethylcyclohexyl)-1H-benzimidazole-6-carboxamide] | 100
3 | Cn1c(Nc2c(Cl)cncc2Cl)nc2cc(C(=O)Nc3ccc(Br)cc3)ccc21 [Example 410, N-(4-Bromophenyl)-2-(3,5-dichloropyridin-4-ylamino)-1-methyl-1H-benzimidazole-5-carboxamide] | 100
4 | O=C(Nc1cccc(Cl)c1)c1ccc2nc(Nc3c(Cl)cncc3Cl)[nH]c2c1 [Example 434, N-(3-Chlorophenyl)-2-(3,5-dichloropyridin-4-ylamino)-1H-benzimidazole-5-carboxamide] | 98
5 | Cn1c(Nc2c(Cl)cncc2Cl)nc2cc(C(=O)NC3CCC(C)(C)CC3)ccc21 [Example 435, 2-(3,5-dichloropyridin-4-ylamino)-N-(4,4-dimethylcyclohexyl)-1-methyl-1H-benzimidazole-5-carboxamide] | 100
6 | CC1(C)CCC(NC(=O)c2ccc3[nH]c(Nc4c(Cl)cncc4Cl)nc3c2)CC1 [Example 446, 2-(3,5-Dichloropyridin-4-ylamino)-N-(4,4-dimethylcyclohexyl)-1H-benzimidazole-5-carboxamide] | 100
7 | Cn1c(Nc2c(Cl)cncc2Cl)nc2cc(C(=O)NCc3ccccc3C(F)(F)F)ccc21 [Example 467, 2-(3,5-Dichloropyridin-4-ylamino)-1-methyl-N-(2-trifluoromethyl-benzyl)-1H-benzimidazole-5-carboxamide] | 96
8 | O=C(NCc1ccccc1C(F)(F)F)c1ccc2[nH]c(Nc3c(Cl)cncc3Cl)nc2c1 [Example 493, 2-(3,5-Dichloropyridin-4-ylamino)-N-(2-trifluoromethyl-benzyl)-1H-benzimidazole-5-carboxamide] | 100
9 | Cn1c(Nc2ccncc2Cl)nc2cc(C(=O)Nc3ccc(Br)cc3)ccc21 [Example 520, N-(4-Bromophenyl)-2-(3-chloropyridin-4-ylamino)-1-methyl-1H-benzimidazole-5-carboxamide] | 97
10 | Cc1ccnc(Cl)c1Nc1nc2ccc(C(=O)Nc3cccc(Cl)c3)cc2[nH]1 [Example 521, 2-(2-Chloro-4-methylpyridin-3-ylamino)-N-(3-chlorophenyl)-1H-benzimidazole-5-carboxamide] | 95
11 | Cc1ccnc(Cl)c1Nc1nc2ccc(C(=O)NC3CCC(C)(C)CC3)cc2[nH]1 [Example 531, 2-(2-Chloro-4-methylpyridin-3-ylamino)-N-(4,4-dimethylcyclohexyl)-1H-benzimidazole-5-carboxamide] | 93
12 | Cn1c(Nc2c(Cl)cncc2Cl)nc2cc(C(=O)NC3CCCCC3)ccc21 [Example 547, N-Cyclohexyl-2-(3,5-dichloropyridin-4-ylamino)-1-methyl-1H-benzimidazole-5-carboxamide] | 96
13 | Cn1c(Nc2c(Cl)cncc2Cl)nc2cc(C(=O)NCc3ncccc3C(F)(F)F)ccc21 [Example 553, 2-(3,5-Dichloropyridin-4-ylamino)-1-methyl-N-((3-trifluoromethyl-pyridin-2-yl)methyl)-1H-benzimidazole-5-carboxamide] | 53
14 | O=C(NCc1ncccc1C(F)(F)F)c1ccc2[nH]c(Nc3c(Cl)cncc3Cl)nc2c1 [Example 565, 2-(3,5-Dichloropyridin-4-ylamino)-N-((3-trifluoromethyl-pyridin-2-yl)methyl)-1H-benzimidazole-5-carboxamide] | 84
15 | O=C(Nc1ccc(Br)cc1)c1ccc2[nH]c(Nc3ccncc3Cl)nc2c1 [Example 566, N-(4-Bromophenyl)-2-(3-chloropyridin-4-ylamino)-1H-benzimidazole-5-carboxamide] | 77
